Experiments:
[1] = Reaction of iron(III)-polymaltose complex with ascorbic acid in buffered solution, UV-VIS, exclusion of oxygen; assay type: physicochemical
Source text: The following measurements were obtained when iron(III)-polymaltose complex with ascorbic acid (ascorbic acid) was investigated at pH 3.0, 5.5 and 8.0:
The buffered solutions (buffers as described above, see Geisser, P., Arneim. -Forsch./Drug Res. 1990, 40 (II), 7, 754-760) were mixed in a molar ratio of Fe(III):ascorbic acid of 1:1, the concentration of Fe(III) and ascorbic acid in the mixture being 5×10^−5 mol/l in each case, and investigated using a conventional UV-VIS spectrophotometer. The operation was carried out with the strict exclusion of oxygen.

[2] = pH 7; relative to normal hydrogen electrode; cited from earlier work
[3] = pH 3.0, reaction time 2 h, Fe(III):ascorbic acid 1:1, 5x10^-5 mol/l
[4] = pH 3.0, reaction time 4 h, Fe(III):ascorbic acid 1:1
[5] = pH 5.5, reaction time 2 h, Fe(III):ascorbic acid 1:1
[6] = pH 8.0, reaction time 2 h, Fe(III):ascorbic acid 1:1
[7] = pH 8.0, reaction time 4 h, Fe(III):ascorbic acid 1:1

Compound	reaction with ascorbic acid to give dehydroascorbic acid ([1]; pH 3, 5.5 and 8, buffered solution, exclusion of oxygen)	Formation of Fe2+ ions [1, 3]	Formation of dehydroascorbic acid [1, 3]	Formation of Fe2+ ions [1, 4]	Formation of dehydroascorbic acid [1, 4]	Formation of Fe2+ ions [1, 5]	Formation of dehydroascorbic acid [1, 5]	Formation of Fe2+ ions [1, 6]	Formation of dehydroascorbic acid [1, 6]	Formation of Fe2+ ions [1, 7]	Formation of dehydroascorbic acid [1, 7]	reaction with ascorbic acid to dehydroascorbic acid and Fe(II) ([1]; within a period of 4 hours, pH values of from 3 to 8)	redox potential [2]
iron(III)-polymaltose complex	does not react	2%	2%	7%	7%	0%	0%	5%	9%	5%	13%	reacts only slowly	−332 mV
O=C1O[C@H]([C@@H](O)CO)C(O)=C1O [ascorbic acid, reference compound]	–	–	–	–	–	–	–	–	–	–	–	–	−66 mV

— patent US20080269167A1, “Preparation Comprising Iron(III) Complex Compounds And Redox-Active Substance(s)” (VIFOR (INTERNATIONAL) AG, priority 2005, published 2008)
